In ChEMBL document CHEMBL1201862, “PubChem BioAssay data set” (2004):
Calls of active or inactive are those of the source. No stated cut-off is given here; in the data, actives have a measured IC50 and inactives only a lower limit.

Target: Envelope glycoprotein gp160 (Human immunodeficiency virus 1, UniProt Q6QLK5)
Assay: cell-free HIV fusion peptide-binding blockers – biochemical, uHTS, fluorescence dequenching, […] (AID 1986)

Chain of Envelope glycoprotein gp160 (Q6QLK5 whole entry, the tested form may be a part): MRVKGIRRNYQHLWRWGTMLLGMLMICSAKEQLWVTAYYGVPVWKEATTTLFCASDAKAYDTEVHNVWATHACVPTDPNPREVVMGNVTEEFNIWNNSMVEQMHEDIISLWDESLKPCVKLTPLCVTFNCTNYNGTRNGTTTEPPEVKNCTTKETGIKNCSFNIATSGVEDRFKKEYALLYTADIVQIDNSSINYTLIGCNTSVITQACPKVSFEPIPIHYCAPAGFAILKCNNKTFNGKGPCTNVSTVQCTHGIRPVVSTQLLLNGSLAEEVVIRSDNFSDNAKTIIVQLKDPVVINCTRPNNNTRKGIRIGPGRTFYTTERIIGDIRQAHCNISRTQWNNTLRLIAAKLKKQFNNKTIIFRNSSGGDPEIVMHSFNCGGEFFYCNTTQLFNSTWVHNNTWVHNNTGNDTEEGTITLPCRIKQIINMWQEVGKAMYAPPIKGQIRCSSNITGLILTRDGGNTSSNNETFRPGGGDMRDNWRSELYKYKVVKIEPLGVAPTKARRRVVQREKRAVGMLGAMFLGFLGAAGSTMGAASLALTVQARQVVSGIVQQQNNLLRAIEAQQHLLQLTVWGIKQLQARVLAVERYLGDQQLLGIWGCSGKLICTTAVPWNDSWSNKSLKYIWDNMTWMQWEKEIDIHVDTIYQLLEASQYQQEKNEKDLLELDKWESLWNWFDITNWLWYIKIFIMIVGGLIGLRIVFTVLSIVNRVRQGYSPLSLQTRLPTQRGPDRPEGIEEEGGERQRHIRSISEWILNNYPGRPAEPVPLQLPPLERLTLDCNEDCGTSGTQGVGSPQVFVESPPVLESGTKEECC

CCc1nnc(NS(=O)(=O)c2ccc(NC(=S)NC(=O)/C=C/c3cccs3)cc2)s1
IC50: 22.6 µM (active)
